Patent US20100286145A1, “ISOPHTHALAMIDE DERIVATIVES INHIBITING BETA-SECRETASE ACTIVITY” (CoMentis, Inc., priority 2007, published 2010)

Biological target: memapsin 2 (Homo sapiens, UniProt P56817)
Assay: Inhibition of memapsin 2 beta-secretase activity (fluorogenic substrate FS-2)
Type: biochemical
Settings: memapsin 2, pH 4, 37° C., 20 minutes pre-incubation; read-out: M2Ki
Protocol: Potency of compounds were determined by measurement of their inhibition of memapsin 2 activity toward a fluorescent substrate. Kinetic inhibition experiments were performed using the procedure as described in Ermolieff, et al. (Biochemistry 39:12450-12456 (2000), the teachings of which are incorporated hereby in their entirety). Briefly, assays were performed at pH 4, 37° C., by pre-incubation of memapsin 2 enzyme with compound for 20 minutes. Activity measurements were initiated by addition of a fluorogenic substrate FS-2 (Bachem Americas, Torrance, Calif.) MCA-SEVNLDAEFR-DNP (SEQ ID NO.: 2). The substrate was derived from 10 amino acids of the human amyloid precursor protein (APP), with the Swedish variant amino acids at the beta-secretase cleavage site. The terminal amino acid was modified from arginine to lysine to facilitate derivatization with a functional group for detection by autofluorescence. The amino acid sequence of the “core” peptide of the substrate is SEVNLDAEFK (SEQ ID NO.: 3). The amino terminus was derivatized with (7-methoxycoumarin-4-yl)acetyl (MCA), and the epsilon amine of the lysine side chain of the terminal residue (K in sequence SEVNLDAEFK (SEQ ID NO.: 3)) was derivatized with 2,4-dinitorphenyl (DNP).
Fluorescent signal increase over time was measured as a rate of hydrolysis of the peptide substrate. Inhibition of hydrolytic rate was expressed relative to uninhibited controls and fit to a model for tight-binding inhibitors (J. Bieth, in “Proteinase Inhibitors,” Bayer Symposium V, 463-469, 1974, which is herein incorporated by reference for all purposes in its entirety).

memapsin 2, sequence (P56817 46-501): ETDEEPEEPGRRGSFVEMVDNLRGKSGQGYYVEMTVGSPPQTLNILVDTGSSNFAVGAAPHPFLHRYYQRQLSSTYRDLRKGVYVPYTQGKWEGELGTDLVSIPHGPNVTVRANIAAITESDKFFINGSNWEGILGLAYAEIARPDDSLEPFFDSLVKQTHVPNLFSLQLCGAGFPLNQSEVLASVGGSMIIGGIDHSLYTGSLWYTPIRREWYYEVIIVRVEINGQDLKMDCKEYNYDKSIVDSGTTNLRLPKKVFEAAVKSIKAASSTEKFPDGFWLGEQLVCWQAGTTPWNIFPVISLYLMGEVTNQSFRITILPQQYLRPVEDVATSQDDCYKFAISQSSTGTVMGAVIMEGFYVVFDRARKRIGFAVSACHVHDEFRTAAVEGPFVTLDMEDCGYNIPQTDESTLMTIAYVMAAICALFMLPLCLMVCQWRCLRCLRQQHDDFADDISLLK

Compound	Ki [µM]
N3-((2S,3R)-3-hydroxy-4-(3-methoxybenzylamino)-1-phenylbutan-2-yl)-N1,4-dimethyl-N1-((4-methylthiazol-2-yl)methyl)isophthalamide and N1-((2S,3R)-3-hydroxy-4-(3-methoxybenzylamino)-1-phenylbutan-2-yl)-N3,4-dimethyl-N3-((4-methylthiazol-2-yl)methyl)isophthalamide (regioisomeric mixture) [Compound 42]	> 0.501
Cc1csc(CN(C)C(=O)c2cccc(C(=O)N[C@@H](Cc3ccccc3)[C@@H](O)CNCc3cncc(C(C)C)c3)c2)n1 [Compound 147, N1-((2S,3S)-3-hydroxy-4-((5-isopropylpyridin-3-yl)methylamino)-1-phenylbutan-2-yl)-N3-methyl-N3-((4-methylthiazol-2-yl)methyl)isophthalamide]	> 0.501
COc1cccc(CNC[C@@H](O)[C@H](Cc2ccccc2)NC(=O)c2cccc(C(=O)N(C)c3nc(C)cs3)c2)c1 [Compound 84, N1-((2S,3R)-3-hydroxy-4-(3-methoxybenzylamino)-1-phenylbutan-2-yl)-N3-methyl-N3-(4-methylthiazol-2-yl)isophthalamide]	> 0.501
COc1cccc(CNC[C@@H](O)[C@H](Cc2ccccc2)NC(=O)c2cccc(C(=O)N(C)Cc3ccccn3)c2)c1 [Compound 45, N1-((2S,3R)-3-hydroxy-4-(3-methoxybenzylamino)-1-phenylbutan-2-yl)-N3-methyl-N3-(pyridin-2-ylmethyl)isophthalamide]	> 0.501
Cc1csc(CN(C)C(=O)c2cccc(C(=O)N[C@@H](Cc3ccccc3)[C@H](O)CNC(C)c3cccc(C(F)F)c3)c2)n1 (stereo partly drawn) [Compound 157, N1-((2S,3R)-4-(1-(3-(difluoromethyl)phenyl)ethylamino)-3-hydroxy-1-phenylbutan-2-yl)-N3-methyl-N3-((4-methylthiazol-2-yl)methyl)isophthalamide]	< 0.3
COc1cccc(CNC[C@@H](O)[C@H](Cc2ccccc2)NC(=O)c2cc(OC)cc(C(=O)N[C@H](C)c3ccccc3)c2)c1 [Compound 69, N1-((2S,3R)-3-hydroxy-4-(3-methoxybenzylamino)-1-phenylbutan-2-yl)-5-methoxy-N3-((R)-1-phenylethyl)isophthalamide]	> 0.501
COc1ccnc(CNC[C@@H](O)[C@H](Cc2ccccc2)NC(=O)c2cccc(C(=O)N(C)Cc3nc(C)cs3)c2)n1 [Compound 48, N1-((2S,3R)-3-hydroxy-4-((4-methoxypyrimidin-2-yl)methylamino)-1-phenylbutan-2-yl)-N3-methyl-N3-((4-methylthiazol-2-yl)methyl)isophthalamide]	> 0.501
Cc1csc(CN(C)C(=O)c2cccc(C(=O)N[C@@H](Cc3ccccc3)[C@H](O)CNC(C)c3cccnc3)c2)n1 (stereo partly drawn) [Compound 43, N1-((2S,3R)-3-hydroxy-1-phenyl-4-(1-(pyridin-3-yl)ethylamino)butan-2-yl)-N3-methyl-N3-((4-methylthiazol-2-yl)methyl)isophthalamide]	> 0.501
Cc1csc(CN(C)C(=O)c2cccc(C(=O)N[C@@H](Cc3ccccc3)[C@H](O)CNCc3ccc(C)c(C)c3)c2)n1 [Compound 13, N1-((2S,3R)-4-(3,4-dimethylbenzylamino)-3-hydroxy-1-phenylbutan-2-yl)-N3-methyl-N3-((4-methylthiazol-2-yl)methyl)isophthalamide]	< 0.3

Second part, the compound after the results:

Ki [µM]	Compound
< 0.3	C=C(C)c1cc(O)cc(CNC[C@@H](O)[C@H](Cc2ccccc2)NC(=O)c2cccc(C(=O)N(C)Cc3nc(C)cs3)c2)c1 [Compound 159, N1-((2S,3R)-3-hydroxy-4-(3-hydroxy-5-(prop-1-en-2-yl)benzylamino)-1-phenylbutan-2-yl)-N3-methyl-N3-((4-methylthiazol-2-yl)methyl)isophthalamide]
< 0.3	Cc1csc(CN(C)C(=O)c2cccc(C(=O)N[C@@H](Cc3ccccc3)[C@H](O)CNCc3cccc(C(C)O)c3)c2)n1 (stereo partly drawn) [Compound 160, N1-((2S,3R)-3-hydroxy-4-(3-(1-hydroxyethyl)benzylamino)-1-phenylbutan-2-yl)-N3-methyl-N3-((4-methylthiazol-2-yl)methyl)isophthalamide]

Same assay, conditions: memapsin 2, pH 4, 37° C., fluorogenic substrate FS-2; read-out: M2Ki

Ki [µM]	Compound
< 0.3	CCn1cc(CNC[C@@H](O)[C@H](Cc2ccccc2)NC(=O)c2cccc(C(=O)N(C)Cc3nc(C)cs3)c2)cn1 [Compound 320, N1-((2S,3R)-4-((1-ethyl-1H-pyrazol-4-yl)methylamino)-3-hydroxy-1-phenylbutan-2-yl)-N3-methyl-N3-((4-methylthiazol-2-yl)methyl)isophthalamide]
< 0.3	C=C(C)c1cncc(CNC[C@@H](O)[C@H](Cc2ccccc2)NC(=O)c2cccc(C(=O)N(C)Cc3nc(CO)cs3)c2)c1 [Compound 319, N1-((2S,3R)-3-hydroxy-1-phenyl-4-((5-(prop-1-en-2-yl)pyridin-3-yl)methylamino)butan-2-yl)-N3-((4-(hydroxymethyl)thiazol-2-yl)methyl)-N3-methylisophthalamide]
> 0.501	Cc1csc(CN(C)C(=O)c2cccc(C(=O)N[C@@H](Cc3ccccc3)[C@H](O)CN(C)Cc3cncc(C(C)C)c3)c2)n1 [Compound 312, N1-((2S,3R)-3-hydroxy-4-(((5-isopropylpyridin-3-yl)methyl)(methyl)amino)-1-phenylbutan-2-yl)-N3-methyl-N3-((4-methylthiazol-2-yl)methyl)isophthalamide]
< 0.3	Cc1csc(CN(C)C(=O)c2cc(C(=O)N[C@@H](Cc3ccccc3)[C@H](O)CNCc3cccc(C(F)(F)F)c3)cc(-c3ccco3)c2)n1 [Compound 305, 5-(furan-2-yl)-N1-((2S,3R)-3-hydroxy-1-phenyl-4-(3-(trifluoromethyl)benzylamino)butan-2-yl)-N3-methyl-N3-((4-methylthiazol-2-yl)methyl)isophthalamide]
> 0.501	C=C(C)c1cncc(C(=O)NC[C@@H](O)[C@H](Cc2ccccc2)NC(=O)c2cccc(C(=O)N(C)Cc3nc(C)cs3)c2)c1 [Compound 288, N1-((2S,3R)-3-hydroxy-1-phenyl-4-(5-(prop-1-en-2-yl)nicotinamido)butan-2-yl)-N3-methyl-N3-((4-methylthiazol-2-yl)methyl)isophthalamide]
< 0.3	CNc1cc(CNC[C@@H](O)[C@H](Cc2ccccc2)NC(=O)c2cccc(C(=O)N(C)Cc3nc(C)cs3)c2)cc(C(F)(F)F)c1 [Compound 283, N1-((2S,3R)-3-hydroxy-4-(3-(methylamino)-5-(trifluoromethyl)benzylamino)-1-phenylbutan-2-yl)-N3-methyl-N3-((4-methylthiazol-2-yl)methyl)isophthalamide]
> 0.501	COc1cccc(S(=O)(=O)NC[C@@H](O)[C@H](Cc2ccccc2)NC(=O)c2cccc(C(=O)N(C)Cc3nc(C)cs3)c2)c1 [Compound 309, N1-((2S,3R)-3-hydroxy-4-(3-methoxyphenylsulfonamido)-1-phenylbutan-2-yl)-N3-methyl-N3-((4-methylthiazol-2-yl)methyl)isophthalamide]
< 0.3	Cc1csc(CN(C)C(=O)c2cc(C(=O)N[C@@H](Cc3ccccc3)[C@H](O)CNCc3cncc(C(C)C)c3)cc(-c3ccoc3)c2)n1 [Compound 303, 5-(furan-3-yl)-N1-((2S,3R)-3-hydroxy-4-((5-isopropylpyridin-3-yl)methylamino)-1-phenylbutan-2-yl)-N3-methyl-N3-((4-methylthiazol-2-yl)methyl)isophthalamide]
